The text below walks through data of ChEMBL document CHEMBL2057077, “Exploration of pipecolate sulfonamides as binders of the FK506-binding proteins 51 and 52” (J Med Chem, 2012).

Experiment [1] concerns the target Peptidyl-prolyl cis-trans isomerase FKBP1A (Homo sapiens, UniProt P62942). The experiment in a line: Binding affinity to FKBP12 by competitive fluorescence polarization assay. On the technique in general: Fluorescence polarisation rises when a labelled molecule tumbles more slowly, as on binding a larger partner.
For experiment [2], the target named is T1, Peptidyl-prolyl cis-trans isomerase FKBP4 (Homo sapiens, UniProt Q02790).
T1 sequence (Q02790 whole entry): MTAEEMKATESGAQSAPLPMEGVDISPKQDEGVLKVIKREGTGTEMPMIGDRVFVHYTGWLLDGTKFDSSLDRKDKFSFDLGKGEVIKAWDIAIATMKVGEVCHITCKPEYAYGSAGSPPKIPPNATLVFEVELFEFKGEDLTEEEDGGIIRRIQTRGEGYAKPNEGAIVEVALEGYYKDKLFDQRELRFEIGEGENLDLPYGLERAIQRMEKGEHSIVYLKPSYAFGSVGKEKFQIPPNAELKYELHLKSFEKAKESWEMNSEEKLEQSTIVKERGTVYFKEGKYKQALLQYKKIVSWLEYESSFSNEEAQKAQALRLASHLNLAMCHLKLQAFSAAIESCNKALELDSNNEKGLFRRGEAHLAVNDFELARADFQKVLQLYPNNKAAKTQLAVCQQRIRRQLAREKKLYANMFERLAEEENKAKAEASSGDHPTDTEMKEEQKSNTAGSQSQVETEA
Kind of experiment: Binding affinity to FKBP52 FK1 domain by competitive fluorescence polarization assay.

Experiment [3] has as its target T2, Peptidyl-prolyl cis-trans isomerase FKBP5 (Homo sapiens, UniProt Q13451).
T2 sequence (Q13451 whole entry): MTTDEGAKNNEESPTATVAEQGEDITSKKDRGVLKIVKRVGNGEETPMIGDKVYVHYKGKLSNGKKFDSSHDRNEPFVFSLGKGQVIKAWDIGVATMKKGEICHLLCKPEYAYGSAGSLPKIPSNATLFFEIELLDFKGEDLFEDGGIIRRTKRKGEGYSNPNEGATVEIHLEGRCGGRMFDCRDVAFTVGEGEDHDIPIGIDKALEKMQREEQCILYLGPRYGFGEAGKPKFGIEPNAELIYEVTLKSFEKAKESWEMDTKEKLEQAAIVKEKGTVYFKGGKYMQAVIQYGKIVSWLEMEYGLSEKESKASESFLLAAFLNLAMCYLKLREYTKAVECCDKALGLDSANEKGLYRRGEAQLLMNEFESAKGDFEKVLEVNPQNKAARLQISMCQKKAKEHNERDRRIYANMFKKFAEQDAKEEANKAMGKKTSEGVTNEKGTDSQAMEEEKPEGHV
Kind of experiment: Binding affinity to FKBP51 FK1 domain by competitive fluorescence polarization assay.

Sequence of Peptidyl-prolyl cis-trans isomerase FKBP1A (P62942 whole entry): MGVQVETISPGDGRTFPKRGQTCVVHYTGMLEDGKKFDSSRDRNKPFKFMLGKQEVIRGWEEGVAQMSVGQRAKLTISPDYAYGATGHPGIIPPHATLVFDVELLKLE

For the molecule `COc1ccc(CC[C@@H](OC(=O)[C@@H]2CCCCN2S(=O)(=O)c2cccc(Cl)c2)c2cccc(OCC(=O)O)c2)cc1OC`, the half-inhibitory concentration (IC50) (in general, the concentration at which inhibition is half-maximal) in experiment [1] (read-out: IC50) worked out at 1.2 µM.

`COc1ccc(CC[C@@H](OC(=O)[C@@H]2CCCCN2S(=O)(=O)c2cc(OC)c(OC)c(C(=O)O)c2)c2cccc(OCC(=O)O)c2)cc1OC`: the IC50 entry in experiment [2], in experiment [3] and in experiment [1] was “Not Active” each time.

Turning to `COc1ccc(CC[C@@H](OC(=O)[C@@H]2CCCCN2S(=O)(=O)c2ccc(-c3ncccn3)cc2)c2cccc(OCC(=O)O)c2)cc1OC`, the IC50 was greater than 100 µM in experiment [2] (read-out: IC50) and 1.8 µM in experiment [1] (read-out: IC50).

Take `COc1ccc(CC[C@@H](OC(=O)[C@@H]2CCCCN2S(=O)(=O)c2cc(Cl)cc(Cl)c2)c2cccc(OCC(=O)O)c2)cc1OC`: the IC50 in experiment [1] (read-out: IC50) worked out at 0.8 µM.

Turning to `COc1ccc(CC[C@@H](OC(=O)[C@@H]2CCCCN2S(=O)(=O)c2ccoc2)c2cccc(OCC(=O)O)c2)cc1OC`, the IC50 in experiment [2] (read-out: IC50) is greater than 100 µM; in experiment [3] (read-out: IC50) it was greater than 100 µM; in experiment [1] (read-out: IC50), 10.1 µM.

For the molecule `COc1ccc(CC[C@@H](NC(=O)[C@@H]2CCCCN2S(=O)(=O)c2cc(Cl)c(O)c(Cl)c2)c2cccc(OCC(=O)O)c2)cc1OC`, the IC50 in experiment [2] (read-out: IC50), in experiment [3] (read-out: IC50) and in experiment [1] (read-out: IC50) was greater than 100 µM throughout.

As for `COc1ccc(CC[C@@H](OC(=O)[C@@H]2CCCCN2S(=O)(=O)c2cc(Cl)c(O)c(Cl)c2)c2cccc(OCC(=O)O)c2)cc1OC`, the half-maximal inhibitory concentration (IC50) was found to be 20.3 µM in experiment [2] (read-out: IC50), 6.2 µM in experiment [3] (read-out: IC50) and 0.67 µM in experiment [1] (read-out: IC50).

Turning to `COc1ccc(CC[C@@H](OC(=O)[C@@H]2CCCCN2S(=O)(=O)c2cc(Cl)cc(Cl)c2)c2cccc(OCCN3CCOCC3)c2)cc1OC`, the IC50 in experiment [2] (read-out: IC50), in experiment [3] (read-out: IC50) and in experiment [1] (read-out: IC50) was greater than 50 µM each time.

`COc1ccc(CC[C@@H](OC(=O)[C@@H]2CCCCN2S(=O)(=O)c2ccc3[nH]c(=O)oc3c2)c2cccc(OCC(=O)O)c2)cc1OC`: the IC50 is greater than 100 µM in experiment [2] (read-out: IC50), greater than 100 µM in experiment [3] (read-out: IC50) and 0.75 µM in experiment [1] (read-out: IC50).

Turning to `COc1ccc(CC[C@@H](OC(=O)[C@@H]2CCCCN2S(=O)(=O)c2cccc(-c3ccnc(C)n3)c2)c2cccc(OCC(=O)O)c2)cc1OC`, the IC50 in experiment [2] (read-out: IC50) is greater than 100 µM; in experiment [3] (read-out: IC50), greater than 100 µM; in experiment [1] (read-out: IC50), 8.1 µM.

Take `COc1ccc(CC[C@@H](OC(=O)[C@@H]2CCCCN2S(=O)(=O)c2cc(Br)cc(C(F)(F)F)c2)c2cccc(OCC(=O)O)c2)cc1OC`: the values for the IC50 in experiment [2] (read-out: IC50), in experiment [3] (read-out: IC50) and in experiment [1] (read-out: IC50) were greater than 100 µM, greater than 100 µM and 2.4 µM, respectively.

On to `COc1ccc(CC[C@@H](OC(=O)[C@@H]2CCCCN2S(=O)(=O)c2ccc(Cl)c(Cl)c2)c2cccc(OCC(=O)O)c2)cc1OC`, for which the IC50 in experiment [2] (read-out: IC50) was greater than 100 µM; in experiment [3] (read-out: IC50) it was greater than 100 µM; in experiment [1] (read-out: IC50), 6.1 µM.

With `COc1ccc(CC[C@@H](NC(=O)[C@@H]2CCCCN2S(=O)(=O)c2ccc3[nH]c(=O)sc3c2)c2cccc(OCC(=O)O)c2)cc1OC`, the IC50 in experiment [2] (read-out: IC50) was greater than 100 µM; in experiment [3] (read-out: IC50), greater than 100 µM; in experiment [1] (read-out: IC50) it was 1.4 µM.

On to `COc1ccc(S(=O)(=O)N2CCCC[C@H]2C(=O)O[C@H](CCc2ccc(OC)c(OC)c2)c2cccc(OCC(=O)O)c2)cc1Cl`, for which the values for the IC50 in experiment [2] (read-out: IC50), in experiment [3] (read-out: IC50) and in experiment [1] (read-out: IC50) were 40.3 µM, 29.6 µM and 0.6 µM, respectively.

With `COc1ccc(CC[C@@H](OC(=O)[C@@H]2CCCCN2S(=O)(=O)c2cccc(Br)c2)c2cccc(OCC(=O)O)c2)cc1OC`, the IC50 in experiment [2] (read-out: IC50) is 15.7 µM; in experiment [3] (read-out: IC50), 15.8 µM; in experiment [1] (read-out: IC50), 0.32 µM.

In the case of `COc1ccc(CC[C@@H](OC(=O)[C@@H]2CCCCN2S(=O)(=O)c2ccc3ncsc3c2)c2cccc(OCC(=O)O)c2)cc1OC`, the IC50 in experiment [2] (read-out: IC50) amounted to 32.5 µM; in experiment [3] (read-out: IC50) it was 11.6 µM; in experiment [1] (read-out: IC50) it was 1.1 µM.

Take `COc1ccc(CC[C@@H](OC(=O)[C@@H]2CCCCN2S(=O)(=O)c2cccc(C#N)c2)c2cccc(OCC(=O)O)c2)cc1OC`: the IC50 in experiment [2] (read-out: IC50) came to 69.9 µM; in experiment [3] (read-out: IC50), 28.5 µM; in experiment [1] (read-out: IC50), 3.8 µM.

Regarding `COc1ccc(OCCOC(=O)[C@@H]2CCCCN2S(=O)(=O)c2ccc3ncsc3c2)cc1OC`, the IC50 is greater than 100 µM in experiment [2] (read-out: IC50), 66.3 µM in experiment [3] (read-out: IC50) and 0.2 µM in experiment [1] (read-out: IC50).

Regarding `COc1ccc(CC[C@@H](OC(=O)[C@@H]2CCCCN2S(=O)(=O)c2cc(Cl)c(OC)c(Cl)c2)c2cccc(OCCN3CCOCC3)c2)cc1OC`, the IC50 in experiment [2] (read-out: IC50), in experiment [3] (read-out: IC50) and in experiment [1] (read-out: IC50) was greater than 50 µM throughout.

With `COc1ccc(CC[C@@H](OC(=O)[C@@H]2CCCCN2S(=O)(=O)c2ccc3ncsc3c2)c2cccc(OCCN3CCOCC3)c2)cc1OC`, the IC50 in experiment [2] (read-out: IC50), in experiment [3] (read-out: IC50) and in experiment [1] (read-out: IC50) was greater than 50 µM throughout.

For the molecule `COc1ccc(CC[C@@H](OC(=O)[C@@H]2CCCCN2S(=O)(=O)c2cc(Cl)c(O)c(Cl)c2)c2cccc(OCCN3CCOCC3)c2)cc1OC`, the IC50 in experiment [1] (read-out: IC50) was found to be 0.115 µM.

Consider `COc1ccc(CC[C@@H](OC(=O)[C@@H]2CCCCN2S(=O)(=O)c2cc(N)c3c(c2)CCO3)c2cccc(OCC(=O)O)c2)cc1OC`, for which the IC50 in experiment [2] (read-out: IC50) was greater than 100 µM; in experiment [3] (read-out: IC50), greater than 100 µM; in experiment [1] (read-out: IC50), 2.57 µM.

Take `COc1ccc(OCCOC(=O)[C@@H]2CCCCN2S(=O)(=O)c2cc(Cl)cc(Cl)c2)cc1OC`: the IC50 in experiment [2] (read-out: IC50), in experiment [3] (read-out: IC50) and in experiment [1] (read-out: IC50) was greater than 100 µM throughout.

Take `COc1ccc(CC[C@@H](OC(=O)[C@@H]2CCCCN2S(=O)(=O)c2cc3c(c([N+](=O)[O-])c2)OCC3)c2cccc(OCC(=O)O)c2)cc1OC`: in experiment [1] (read-out: IC50), the IC50 worked out at 1.5 µM.

For `COc1ccc(CC[C@@H](OC(=O)[C@@H]2CCCCN2S(=O)(=O)c2ccc3[nH]c(=O)sc3c2)c2cccc(OCCN3CCOCC3)c2)cc1OC`, the IC50 turned out to be 3.41 µM in experiment [2] (read-out: IC50), 2.03 µM in experiment [3] (read-out: IC50) and 0.003 µM in experiment [1] (read-out: IC50).

As to `COc1ccc(CC[C@@H](OC(=O)[C@@H]2CCCCN2S(=O)(=O)c2ccc3[nH]c(=O)sc3c2)c2cccc(OCC(=O)O)c2)cc1OC`, in experiment [1] (read-out: IC50), the IC50 stood at 0.021 µM.

Consider `COc1ccc(CC[C@@H](OC(=O)[C@@H]2CCCCN2S(=O)(=O)c2cc(Cl)c(NC(C)=O)c(Cl)c2)c2cccc(OCC(=O)O)c2)cc1OC`, for which the IC50 worked out at 20.5 µM in experiment [2] (read-out: IC50), 16.1 µM in experiment [3] (read-out: IC50) and 1.18 µM in experiment [1] (read-out: IC50).

In the case of `COc1ccc(CC[C@@H](OC(=O)[C@@H]2CCCCN2S(=O)(=O)c2ccc3c(c2)CC(=O)N3)c2cccc(OCC(=O)O)c2)cc1OC`, the IC50 is greater than 100 µM in experiment [2] (read-out: IC50), greater than 100 µM in experiment [3] (read-out: IC50) and 0.66 µM in experiment [1] (read-out: IC50).

On to `COc1ccc(CC[C@@H](OC(=O)[C@@H]2CCCCN2S(=O)(=O)c2ccc3nc(C)sc3c2)c2cccc(OCC(=O)O)c2)cc1OC`, for which, in experiment [1] (read-out: IC50), the IC50 worked out at 1.2 µM.

Turning to `COc1ccc(CC[C@@H](OC(=O)[C@@H]2CCCCN2S(=O)(=O)c2cc3ccccc3s2)c2cccc(OCC(=O)O)c2)cc1OC`, the IC50 in experiment [2] (read-out: IC50) was greater than 100 µM; in experiment [1] (read-out: IC50), 4.6 µM.

`COc1ccc(CC[C@@H](OC(=O)[C@@H]2CCCCN2S(=O)(=O)c2cc(Cl)c(OC)c(Cl)c2)c2cccc(OCC(=O)O)c2)cc1OC`: the IC50 in experiment [1] (read-out: IC50) turned out to be 0.23 µM.

In the case of `COc1ccc(CC[C@@H](OC(=O)[C@@H]2CCCCN2S(=O)(=O)c2cc(F)cc(F)c2)c2cccc(OCC(=O)O)c2)cc1OC`, the IC50 in experiment [3] (read-out: IC50) worked out at 88.2 µM; in experiment [1] (read-out: IC50) it was 1 µM.

In the case of `COc1ccc(CC[C@@H](OC(=O)[C@@H]2CCCCN2S(=O)(=O)c2cc(Cl)c(NC(C)=O)c(Cl)c2)c2cccc(OCCN3CCOCC3)c2)cc1OC`, the IC50 in experiment [1] (read-out: IC50) is 0.45 µM.
